Organism: Rattus norvegicus
Assay: Open TG-GATES - Regimen: Daily Repeat
Type: toxicity, organism-based, Sprague-Dawley
Design: regimen Daily Repeat, gender Male, age 6 weeks
Conditions: in vivo, po, 0 mg/kg, […], route gavage, dose level Control; for KIDNEY_L / KIDNEY_R / KIDNEY_TOTAL: tissue Kidney; for LIVER: tissue Liver; for ALP / ALT / AST / BUN / CRE / Ca / Cl / DBIL / GLC / IP / K / LDH / Na / PL / RALB / TBIL / TC / TG / TP / gamma-GTP: tissue Plasma

CS(=O)(=O)Nc1ccc([N+](=O)[O-])cc1Oc1ccccc1 [NIMESULIDE]
Lym (tissue Blood, time 28 day): 80.6% | MCHC (tissue Blood, time 28 day): 33.9% | MCV (tissue Blood, time 28 day): 58.6 fL | Mono (tissue Blood, time 28 day): 5.8% | Neu (tissue Blood, time 28 day): 12.4% | PT (tissue Blood, time 28 day): 11.7 s | Plat (tissue Blood, time 28 day): 126.5 x10_4/uL | RBC (tissue Blood, time 28 day): 761 x10_4/ul | Ret (tissue Blood, time 28 day): 2.7% | WBC (tissue Blood, time 28 day): 120.2 x10_2/uL | KIDNEY_L (time 7 day): 1.1 g | KIDNEY_R (time 7 day): 1.1 g | KIDNEY_TOTAL (time 7 day): 2.2 g | KIDNEY_L (time 14 day): 1.4 g | KIDNEY_R (time 14 day): 1.3 g | KIDNEY_TOTAL (time 14 day): 2.7 g | KIDNEY_L (time 28 day): 1.4 g | KIDNEY_R (time 28 day): 1.4 g | KIDNEY_TOTAL (time 28 day): 2.8 g | LIVER (time 7 day): 11.6 g | LIVER (time 14 day): 14.5 g | LIVER (time 28 day): 16.5 g | ALP (time 7 day): 876.4 IU/L | ALT (time 7 day): 35.4 IU/L | AST (time 7 day): 64.2 IU/L | BUN (time 7 day): 19.2 mg/dL | CRE (time 7 day): 0.6 mg/dL | Ca (time 7 day): 10.5 mg/dL | Cl (time 7 day): 105.2 meq/L | DBIL (time 7 day): 0.03 mg/dL | GLC (time 7 day): 197.4 mg/dL | IP (time 7 day): 7 mg/dL | K (time 7 day): 5 meq/L | LDH (time 7 day): 91.8 IU/L | Na (time 7 day): 140.4 meq/L | PL (time 7 day): 153.8 mg/dL | RALB (time 7 day): 4 g/dL | TBIL (time 7 day): 0.3 mg/dL | TC (time 7 day): 79.2 mg/dL | TG (time 7 day): 108.6 mg/dL | TP (time 7 day): 5.7 g/dL | gamma-GTP (time 7 day): 1.4 IU/L | ALP (time 14 day): 898.6 IU/L | ALT (time 14 day): 28.4 IU/L | AST (time 14 day): 60 IU/L | BUN (time 14 day): 17.4 mg/dL | CRE (time 14 day): 0.5 mg/dL | Ca (time 14 day): 10.7 mg/dL | Cl (time 14 day): 106.4 meq/L | DBIL (time 14 day): 0.002 mg/dL | GLC (time 14 day): 199.4 mg/dL | IP (time 14 day): 7.2 mg/dL | K (time 14 day): 4.7 meq/L | LDH (time 14 day): 54 IU/L | Na (time 14 day): 140.6 meq/L | PL (time 14 day): 141 mg/dL | RALB (time 14 day): 4 g/dL | TBIL (time 14 day): 0.3 mg/dL | TC (time 14 day): 65.4 mg/dL | TG (time 14 day): 124.4 mg/dL | TP (time 14 day): 5.9 g/dL | gamma-GTP (time 14 day): 1 IU/L | ALP (time 28 day): 627.4 IU/L | ALT (time 28 day): 29 IU/L | AST (time 28 day): 61.8 IU/L | BUN (time 28 day): 20.2 mg/dL | CRE (time 28 day): 0.6 mg/dL | Ca (time 28 day): 10.5 mg/dL | Cl (time 28 day): 108.2 meq/L | DBIL (time 28 day): 0.006 mg/dL | GLC (time 28 day): 200 mg/dL | IP (time 28 day): 6.6 mg/dL | K (time 28 day): 4.7 meq/L | LDH (time 28 day): 78 IU/L | Na (time 28 day): 143.8 meq/L | PL (time 28 day): 152 mg/dL | RALB (time 28 day): 4.1 g/dL | TBIL (time 28 day): 0.3 mg/dL | TC (time 28 day): 73.2 mg/dL | TG (time 28 day): 160.4 mg/dL | TP (time 28 day): 6 g/dL | gamma-GTP (time 28 day): 1.8 IU/L

Source: ChEMBL document CHEMBL3885861, “Open TG-GATES”
